Measurements taken from patent US10105357B2, “Indication of antibiotic drugs for preparation of cancer inhibition pharmaceutical composition” (LAUNX BIOMEDICAL CO., LTD., priority 2014, dated 2018).
Structures can show the parent of a compound that is named as a salt. Where two headings read alike, the source gives them in different places.

Experiments:
[1] = test system: MKN-45 (Gastric Adenocarcinoma); test: Cell viability analysis, gastric cancer MKN-45; type: cell-based, human; settings: Homo sapiens, MKN-45, 72 h
[2] = test system: HeLa (Cervix Adenocarcinoma); test: Cell viability analysis, cervical cancer HeLa; type: cell-based, human; settings: Homo sapiens, HeLa, 72 h
[3] = test system: HCT116 (p53+) (Colorectal Carcinoma)
[4] = test system: 786-O (Renal adenocarcinoma); test: Cell viability analysis, renal cancer 786-O; type: cell-based, human; settings: Homo sapiens, 786-0, 72 h, read-out: The results of antibiotic drug inhibiting cancer cell lines (cell viability analysis), 786-O
[5] = test system: AsPC-1; test: Cell viability analysis, pancreatic cancer AsPC-1; type: cell-based, human; settings: Homo sapiens, ASPC1, 72 h, read-out: The results of antibiotic drug inhibiting cancer cell lines (cell viability analysis), AsPC-1
[6] = test system: HL-60 (Acute Promyelocytic Leukemia); test: Cell viability analysis, leukemia HL-60; type: cell-based, human; settings: Homo sapiens, HL-60, 72 h, read-out: cell viability (survival rate), HL-60, drug 10 μM, 72 hours, WST-1, OD450 nm
[7] = test system: NIH: OVCAR-3; test: Cell viability analysis, ovarian cancer NIH: OVCAR-3; type: cell-based, human; settings: Homo sapiens, OVCAR-3, 72 h, read-out: The results of antibiotic drug inhibiting cancer cell lines (cell viability analysis), NIH-OVCAR-3
[8] = test system: LoVo (Colorectal Adenocarcinoma); test: Cell viability analysis, colon cancer LoVo; type: cell-based, human; settings: Homo sapiens, LoVo, 72 h
[9] = test system: AGS (Gastric Adenocarcinoma); test: Cell viability analysis, gastric cancer AGS; type: cell-based, human; settings: Homo sapiens, 72 h
[10] = test system: Hep3B (hepatocellular carcinoma); test: Cell viability analysis, hepatic cancer Hep3B; type: cell-based, human; settings: Homo sapiens, Hep3B, 72 h, read-out: The results of antibiotic drug inhibiting cancer cell lines (cell viability analysis), Hep3B
[11] = test system: TOV-21G; test: Cell viability analysis, ovarian cancer TOV-21G; type: cell-based, human; settings: Homo sapiens, TOV21G, 72 h, read-out: The results of antibiotic drug inhibiting cancer cell lines (cell viability analysis), TOV-21G
[12] = test system: U-2OS; test: Cell viability analysis, osteosarcoma U-2OS; type: cell-based, human; settings: Homo sapiens, U2OS, 72 h, read-out: The results of antibiotic drug inhibiting cancer cell lines (cell viability analysis), U2OS
[13] = test system: cancer cell lines; test: Cell viability analysis (WST-1) on cancer cell lines; type: cell-based, human; settings: drug 10 μM, 72 hours, WST-1; Table 3
[14] = test system: MDA-MB-231 (Mammary Gland, Adenocarcinoma); test: Cell viability analysis, breast cancer MDA-MB-231; type: cell-based, human; settings: Homo sapiens, MDA-MB-231, 72 h, read-out: The results of antibiotic drug inhibiting cancer cell lines (cell viability analysis), MDA-MB231
[15] = test system: C-33A (Cervical carcinoma); test: Cell viability analysis, cervical cancer C-33A; type: cell-based, human; settings: Homo sapiens, C-33-A, 72 h, read-out: The results of antibiotic drug inhibiting cancer cell lines (cell viability analysis), C-33A
[16] = test system: PC3 (p53−) (Prostate Adenocarcinoma); test: Cell viability analysis, prostate cancer PC3; type: cell-based, human; settings: Homo sapiens, 72 h
[17] = test system: HI650 (Lung Adenocarcinoma); test: Cell viability analysis, lung cancer HI650; type: cell-based, human; settings: Homo sapiens, NCI-H1650, 72 h
[18] = test system: BxPC-3; test: Cell viability analysis, pancreatic cancer BxPC-3; type: cell-based, human; settings: Homo sapiens, BXPC-3, 72 h, read-out: The results of antibiotic drug inhibiting cancer cell lines (cell viability analysis), BxPC-3
[19] = test system: SAS (Tongue squamous cell carcinoma); test: Cell viability analysis, tongue cancer SAS; type: cell-based, human; settings: Homo sapiens, 72 h, read-out: The results of antibiotic drug inhibiting cancer cell lines (cell viability analysis), SAS
[20] = test system: BCC (basal cell carcinoma); test: Cell viability analysis, skin cancer BCC; type: cell-based, human; settings: Homo sapiens, 72 h, read-out: The results of antibiotic drug inhibiting cancer cell lines (cell viability analysis), BCC
[21] = test system: A549 (Lung Adenocarcinoma); test: Cell viability analysis, lung cancer A549; type: cell-based, human; settings: Homo sapiens, A549, 72 h
[22] = test system: MCF7 (Mammary Gland, Adenocarcinoma); test: Cell viability analysis, breast cancer MCF7; type: cell-based, human; settings: Homo sapiens, MCF7, 72 h
[23] = test system: T24; test: Cell viability analysis, bladder cancer T24; type: cell-based, human; settings: Homo sapiens, T-24, 72 h, read-out: The results of antibiotic drug inhibiting cancer cell lines (cell viability analysis), T24
[24] = test system: HepG2 (Hepatocellular Carcinoma); test: Cell viability analysis, hepatic cancer HepG2; type: cell-based, human; settings: Homo sapiens, HepG2, 72 h
[25] = test system: A375 (Amelanotic Melanoma); test: Cell viability analysis, skin cancer A375; type: cell-based, human; settings: Homo sapiens, A-375, 72 h
[26] = read-out: The results of antibiotic drug inhibiting cancer cell lines (cell viability analysis), MKN-45, MKN-45, repeated experiment
[27] = read-out: cell viability (survival rate), MKN-45, drug 10 μM, 72 hours, WST-1, OD450 nm
[28] = read-out: The results of antibiotic drug inhibiting cancer cell lines (cell viability analysis), HeLa, repeated experiment
[29] = read-out: cell viability (survival rate), HeLa, drug 10 μM, 72 hours, WST-1, OD450 nm
[30] = read-out: The results of antibiotic drug inhibiting cancer cell lines (cell viability analysis), LoVo, repeated experiment
[31] = read-out: cell viability (survival rate), LoVo, drug 10 μM, 72 hours, WST-1, OD450 nm
[32] = read-out: The results of antibiotic drug inhibiting cancer cell lines (cell viability analysis), AGS, repeated experiment
[33] = read-out: cell viability (survival rate), AGS, drug 10 μM, 72 hours, WST-1, OD450 nm
[34] = read-out: The results of antibiotic drug inhibiting cancer cell lines (cell viability analysis), PC-3, PC-3, repeated experiment
[35] = read-out: cell viability (survival rate), PC3, drug 10 μM, 72 hours, WST-1, OD450 nm
[36] = read-out: The results of antibiotic drug inhibiting cancer cell lines (cell viability analysis), H1650, H1650, repeated experiment
[37] = read-out: cell viability (survival rate), H1650, drug 10 μM, 72 hours, WST-1, OD450 nm
[38] = read-out: The results of antibiotic drug inhibiting cancer cell lines (cell viability analysis), A549, A549, repeated experiment
[39] = read-out: cell viability (survival rate), A549, drug 10 μM, 72 hours, WST-1, OD450 nm
[40] = read-out: The results of antibiotic drug inhibiting cancer cell lines (cell viability analysis), MCF-7, MCF-7, repeated experiment
[41] = read-out: cell viability (survival rate), MCF7, drug 10 μM, 72 hours, WST-1, OD450 nm
[42] = read-out: The results of antibiotic drug inhibiting cancer cell lines (cell viability analysis), HepG2, HepG2, repeated experiment
[43] = read-out: cell viability (survival rate), HepG2, drug 10 μM, 72 hours, WST-1, OD450 nm
[44] = read-out: The results of antibiotic drug inhibiting cancer cell lines (cell viability analysis), A375, A375, repeated experiment
[45] = read-out: cell viability (survival rate), A375, drug 10 μM, 72 hours, WST-1, OD450 nm

Row | SMILES | viability at 10 µM [1, 26] [%] | viability at 10 µM [1, 27] [%] | viability at 10 µM [2, 28] [%] | viability at 10 µM [2, 29] [%] | viability [3] [%] | viability at 10 µM [4] [%] | viability at 10 µM [5] [%] | viability at 10 µM [6] [%] | viability at 10 µM [7] [%] | viability at 10 µM [8, 30] [%] | viability at 10 µM [8, 31] [%] | viability at 10 µM [9, 32] [%] | viability at 10 µM [9, 33] [%] | viability at 10 µM [10] [%] | viability at 10 µM [11] [%] | viability at 10 µM [12] [%] | inhibition effect on different cancer cell lines [13] | viability at 10 µM [14] [%] | viability at 10 µM [15] [%] | viability at 10 µM [16, 34] [%] | also measured
1 | CC(C)(C)C(=O)OCOP(=O)(COCCn1cnc2c(N)ncnc21)OCOC(=O)C(C)(C)C [Adefovir Dipivoxil (Preveon, Hepsera), Adefovir Dipivoxil] | 86.6 | 46.1 | 77.4 | 96.6 | 55.4 | 25.9 | 48.7 | 60.4 | 78.8 | 58.1 | 62 | 78 | 35.1 | 71.5 | 77.3 | 68.5 | significant inhibition effect | 71.9 | 68 | 74.8 | viability at 10 µM [16, 35]: 91.3%; viability at 10 µM [17, 36]: 54%; viability at 10 µM [17, 37]: 55.3%; viability at 10 µM [18]: 56.9%; viability at 10 µM [19]: 40%; viability at 10 µM [20]: 38.9%; viability at 10 µM [21, 38]: 76.7%; viability at 10 µM [21, 39]: 47.3%; viability at 10 µM [22, 40]: 75.5%; viability at 10 µM [22, 41]: 56.7%; viability at 10 µM [23]: 44.8%; viability at 10 µM [24, 42]: 80.1%; viability at 10 µM [24, 43]: 95.5%; viability at 10 µM [25, 44]: 37.7%; viability at 10 µM [25, 45]: 81.7%
2 | CN(C)[C@@H]1C(O)=C(C(N)=O)C(=O)[C@@]2(O)C(O)=C3C(=O)c4c(O)ccc(Cl)c4[C@@](C)(O)[C@H]3C[C@@H]12 [Chlortetracycline HCl] | 142 | 43 | 84 | 83.9 | 91.5 | 91.4 | 82.1 | 83.9 | 99.3 | 74.4 | 61.4 | 99.9 | 69.7 | 117 | 92.2 | 80.3 | significant inhibition effect | 83.2 | 88 | 108 | viability at 10 µM [16, 35]: 38.2%; viability at 10 µM [17, 36]: 88.5%; viability at 10 µM [17, 37]: 59.9%; viability at 10 µM [18]: 63.7%; viability at 10 µM [19]: 97.4%; viability at 10 µM [20]: 97.1%; viability at 10 µM [21, 38]: 99.3%; viability at 10 µM [21, 39]: 45.8%; viability at 10 µM [22, 40]: 93.4%; viability at 10 µM [22, 41]: 32.2%; viability at 10 µM [23]: 122%; viability at 10 µM [24, 42]: 113%; viability at 10 µM [24, 43]: 75%; viability at 10 µM [25, 44]: 108%; viability at 10 µM [25, 45]: 49.2%
